# Data: ChEMBL document CHEMBL1154206, “Bioactive iridoid glucosides from the fruit of Gardenia jasminoides” (J Nat Prod, 2009)
# Calls of active or inactive are those of the source. No cut-off for these calls is given here.
# Tested on: Drosophila
# Assay: Short term memory enhancement in human Abeta42 transgenic Drosophila alzheimers disease model dosed for 6 days by pavlovian olfactory learning assay after 8 days
# Format: functional, organism-based
row,Compound,Activity
1,COC(=O)C1=CO[C@@H](O[C@@H]2O[C@H](COC(=O)/C=C/c3ccc(O)cc3)[C@@H](O)[C@H](O)[C@H]2O)[C@@H]2C(CO)=CC[C@H]12,Active
2,COC(=O)C1=CO[C@@H](O[C@@H]2O[C@H](COC(C)=O)[C@@H](O)[C@H](O)[C@H]2O)[C@@H]2C(CO)=CC[C@H]12,Active
3,COC(=O)C1=CO[C@@H](O[C@@H]2O[C@H](CO)[C@@H](O)[C@H](O)[C@H]2O)[C@@H]2C(CO)=CC[C@H]12,Active
4,COC(=O)C1=CO[C@@H](O[C@@H]2O[C@H](COC(=O)/C=C/c3cc(OC)c(O)c(OC)c3)[C@@H](O)[C@H](O)[C@H]2O)[C@@H]2C(CO)=CC[C@H]12,Active
5,COC(=O)C1=CO[C@@H](O[C@@H]2O[C@H](CO)[C@@H](O)[C@H](O)[C@H]2O)[C@@H]2C(COC(=O)CCC(=O)O)=CC[C@H]12,Active
6,COC(=O)C1=CO[C@@H](O[C@@H]2O[C@H](CO)[C@@H](O)[C@H](O)[C@H]2O)[C@@H]2C(COC(C)=O)=CC[C@H]12,Active
7,COc1cc(/C=C/C(=O)OC[C@H]2O[C@@H](OC[C@H]3C(=O)OC[C@@H]4C(CO)=CC[C@@H]43)[C@H](O)[C@@H](O)[C@@H]2O)cc(OC)c1O,Active
8,COc1cc(/C=C/C(=O)OC[C@H]2O[C@@H](OCC3=CC[C@H]4[C@@H]3COC(=O)[C@@H]4CO)[C@H](O)[C@@H](O)[C@@H]2O)cc(OC)c1O,Active
